Laboratory results from patent publication EP0252380B1, “Antibiotic LL-E19020 alpha and beta” (AMERICAN CYANAMID COMPANY, priority 1986, dated 1988).
In brackets after ≈: the same amount, converted by molar mass. Marks after values point to notes of the source that are not given here.

Columns and labels:
Staphylococcus aureus = assay: In vitro antibacterial activity, standard agar dilution method (Table II); assay type: cell-based
[1] = tested on: Streptococcus sp. (β-hemolytic); assay: as above; assay type: cell-based
Enterococcus = assay: as above; assay type: cell-based
[2] = tested on: Pasteurella haemolytica 30660; assay: Pasteurella disk test (primary in vitro disk diffusion test); assay type: cell-based; settings: disks soaked in 2.5 mg/ml solution; strain 30660
Streptococcus pyogenes = assay: Minimum inhibitory concentration by agar dilution (Table VI); assay type: cell-based; settings: 2 strains tested
[3] = tested on: Bordetella bronchiseptica; assay: as above; assay type: cell-based; settings: 4 strains tested
Treponema hyodysenteriae = assay: Minimum inhibitory concentration by microdilution (Table VII); assay type: cell-based
[4] = Growth of chickens and efficiency of feed utilization (Example 5, Table VIII); assay type: in vivo, Peterson X Arbor Acres chicks; settings: for Feed/Gain 0-1 Wk: control 1.21; for Feed/Gain 0-2 Wk: control 1.33; for Feed/Gain 0-3 Wk: control 1.43
Procedure: In this test one day old Peterson X Arbor Acres chicks are sorted into equal weight groups of 5 males and 5 females per cage. Cages are randomized to treatment groups with six replicates per treatment. Each compound is tested at 50 and 100 ppm in the diet and evaluated against chicks receiving a non-medicated diet.
The chicks are weighed at the start of the test and at 1 week intervals thereafter to the conclusion of said test. The chicks are given free access to feed and water during the entire test period. The feed is weighed when provided to the chicks and excess feed collected and weighed when the cages are cleaned.
The poultry diet employed in the test is as follows: Vitamin-amino acid premix 0.5% Trace minerals 0.1% Sodium chloride 0.3% Dicalcium phosphate 1.2% Ground limestone 0.5% Stabilized fat 4.0% Dehydrated alfalfa, 17% protein 2.0% Corn gluten meal, 41% protein 5.0% Menhaden fish meal, 60% protein 5.0% Soybean oil meal, 44% protein 30.0% Ground yellow corn, fine to 100.0%
The vitamin-amino acid premix in the above feed composition is prepared from the following formulation. The expressions of quantity relate to units per kilogram of the finished feed compositions. Butylated hydroxy toluene 125.0 mg d1-Methionine 500.0 mg Vitamin A 3300.0 I.U. Vitamin D₃ 1100.0 I.C.U. Riboflavin 4.4 mg Vitamin E 2.2 I.U. Niacin 27.5 mg Panthothenic acid 8.8 mg Choline chloride 500.0 mg Folic acid 1.43 mg Menadione sodium bisulfate 1.1 mg Vitamin B₁₂ 11.0 mcg Ground yellow corn, fine to […]

[5] = Weight gain and feed efficiency of broiler chicks (Example 6, Table IX); assay type: in vivo, Peterson X Arbor Acres chicks; settings: for Wg Gains And Feed Efficiency % Improvement Over Controls FEED/GAIN: control 1.41
[6] = tested on: Trichostrongylus colubriformis; assay: Trichostrongylus colubriformis/gerbil anthelmintic evaluation; assay type: in vivo, Gerbils
Procedure: Gerbils are infected with 400 infective larvae of the sheep parasite, T. colubriformis on a day 0. On day 7 gerbils are divided into test and untreated control groups of 2-3 animals. Drug is administered in the feed and are fed from day 7-11. Drugs may also be given by gavage (single oral dose) or injected subcutaneously. Single doses are usually administered on day 7. Gerbils are killed on day 11 and small intestines removed. The number of T. colubriformis remaining in the intestines of treated animals are counted and compared to the number remaining in the untreated controls.

[7] = tested on: Streptococcus pyogenes C203; assay: In vivo antibacterial activity in infected mice (Table III); settings: S. pyogenes C203, 30 minutes before infection

C/C=C/C=C/[C@@H]1O[C@](O)([C@H](CO[C@H]2C[C@H](OC)[C@H](O[C@@H]3C[C@H](OC)[C@@H](O[C@H]4C[C@H](OC)[C@H](O)[C@H](C)O4)[C@H](C)O3)[C@H](C)O2)C(=O)NC/C=C/C=C(\C)[C@H](OC)[C@@H](C)[C@@H]2C[C@H](O)[C@@H](/C=C/C=C/C=C\C(=O)O)O2)[C@@H](O)[C@H](OC(=O)Cc2ccccc2)C1(C)C [LL-E19020 beta]
Minimal Inhibitory Concentration (Staphylococcus aureus; strain ATCC 25923): > 256 µg/mL
Minimal Inhibitory Concentration (Staphylococcus aureus; strain CMC-83-127): > 128 µg/mL
Minimal Inhibitory Concentration (Staphylococcus aureus; strain CMC-83-131): > 128 µg/mL
Minimal Inhibitory Concentration (Staphylococcus aureus; strain CMC-83-132): > 128 µg/mL
Minimal Inhibitory Concentration (Staphylococcus aureus; strain SSC-82-57): > 128 µg/mL
Minimal Inhibitory Concentration (Staphylococcus aureus; strain Smith): > 128 µg/mL
Minimal Inhibitory Concentration (Staphylococcus aureus; strain VGH-84-45): > 128 µg/mL
Minimal Inhibitory Concentration ([1]; strain C203): 0.5 µg/mL
Minimal Inhibitory Concentration ([1]; strain VGH-84-60): 0.25 µg/mL
Minimal Inhibitory Concentration ([1]; strain VGH-84-61): 0.5 µg/mL
Minimal Inhibitory Concentration ([1]; strain VGH-84-62): 0.5 µg/mL
Minimal Inhibitory Concentration ([1]; strain VGH-84-63): 0.12 µg/mL
Minimal Inhibitory Concentration ([1]; strain VGH-84-64): 0.12 µg/mL
Minimal Inhibitory Concentration (Enterococcus; strain CMC-83-72): >128 µg/mL
Minimal Inhibitory Concentration (Enterococcus; strain IO-83-28): >128 µg/mL
Minimal Inhibitory Concentration (Enterococcus; strain IO-83-40): >128 µg/mL
Minimal Inhibitory Concentration (Enterococcus; strain VGH-84-65): >128 µg/mL
Minimal Inhibitory Concentration (Enterococcus; strain VGH-84-68): >128 µg/mL
ZONE SIZE [2]: 13 mm
MIC (Streptococcus pyogenes): 2 to 4 µg/mL
MIC [3]: > 256 µg/mL
MIC (Treponema hyodysenteriae; strain B78 (ATCC 27164)): 1 µg/mL (≈ 0.815 µM)
MIC (Treponema hyodysenteriae; strain B204 (ATCC 31212)): 0.5 µg/mL (≈ 0.408 µM)
Weight Gains % Improvement over Controls 0-1 Wk ([4]; 50 ppm in the diet): 12.7** %
Weight Gains % Improvement over Controls 0-2 Wk ([4]; 50 ppm in the diet): 4.5* %
Weight Gains % Improvement over Controls 0-3 Wk ([4]; 50 ppm in the diet): 5.3* %
Feed/Gain 0-1 Wk ([4]; 50 ppm in the diet): 1.11*
Feed/Gain 0-2 Wk ([4]; 50 ppm in the diet): 1.31
Feed/Gain 0-3 Wk ([4]; 50 ppm in the diet): 1.40
Weight Gains % Improvement over Controls 0-1 Wk ([4]; 100 ppm in the diet): 10.7* %
Weight Gains % Improvement over Controls 0-2 Wk ([4]; 100 ppm in the diet): 5.1* %
Weight Gains % Improvement over Controls 0-3 Wk ([4]; 100 ppm in the diet): 5.9** %
Feed/Gain 0-1 Wk ([4]; 100 ppm in the diet): 1.13*
Feed/Gain 0-2 Wk ([4]; 100 ppm in the diet): 1.29
Feed/Gain 0-3 Wk ([4]; 100 ppm in the diet): 1.38
efficiency of feed utilization (statement in words) ([4]; over unmedicated controls): increased the efficiency of feed utilization
weight gains of chicks (statement in words) ([4]; over unmedicated controls): improved the weight gains of chicks
Wg Gains And Feed Efficiency % Improvement Over Controls COMBINED ([5]; 12.5 PPM in diet): 2.6%
Wg Gains And Feed Efficiency % Improvement Over Controls FEMALES ([5]; 12.5 PPM in diet): 6.0%
Wg Gains And Feed Efficiency % Improvement Over Controls MALES ([5]; 12.5 PPM in diet): 0%
Wg Gains And Feed Efficiency % Improvement Over Controls FEED/GAIN ([5]; 12.5 PPM in diet): 1.33**
Wg Gains And Feed Efficiency % Improvement Over Controls COMBINED ([5]; 25 PPM in diet): 3.4%
Wg Gains And Feed Efficiency % Improvement Over Controls FEMALES ([5]; 25 PPM in diet): 5.1%
Wg Gains And Feed Efficiency % Improvement Over Controls MALES ([5]; 25 PPM in diet): 2.4%
Wg Gains And Feed Efficiency % Improvement Over Controls FEED/GAIN ([5]; 25 PPM in diet): 1.38*
Wg Gains And Feed Efficiency % Improvement Over Controls COMBINED ([5]; 50 PPM in diet): 2.2%
Wg Gains And Feed Efficiency % Improvement Over Controls FEMALES ([5]; 50 PPM in diet): 4.6%
Wg Gains And Feed Efficiency % Improvement Over Controls MALES ([5]; 50 PPM in diet): 0%
Wg Gains And Feed Efficiency % Improvement Over Controls FEED/GAIN ([5]; 50 PPM in diet): 1.38*
Wg Gains And Feed Efficiency % Improvement Over Controls COMBINED ([5]; 100 PPM in diet): 4.5%
Wg Gains And Feed Efficiency % Improvement Over Controls FEMALES ([5]; 100 PPM in diet): 7.2%
Wg Gains And Feed Efficiency % Improvement Over Controls MALES ([5]; 100 PPM in diet): 1.7%
Wg Gains And Feed Efficiency % Improvement Over Controls FEED/GAIN ([5]; 100 PPM in diet): 1.34**
Wg Gains And Feed Efficiency % Improvement Over Controls COMBINED ([5]; 200 PPM in diet): 2.7%
Wg Gains And Feed Efficiency % Improvement Over Controls FEMALES ([5]; 200 PPM in diet): 1.4%
Wg Gains And Feed Efficiency % Improvement Over Controls MALES ([5]; 200 PPM in diet): 4.2%
Wg Gains And Feed Efficiency % Improvement Over Controls FEED/GAIN ([5]; 200 PPM in diet): 1.35**
% Worms Removed ([6]; 5 m/kg single oral dose): 19%
% Worms Removed ([6]; 62.5 ppm diet, fed day 7-11): 32%
% Worms Removed ([6]; 150 ppm diet, fed day 7-11): 86%
% Worms Removed ([6]; 250 ppm diet, fed day 7-11): 100%
Survival Ratios 7 Days After Infection ([7]; single subcutaneous dose 4 mg/kg): 2/5
Survival Ratios 7 Days After Infection ([7]; single subcutaneous dose 8 mg/kg): 3/5
Survival Ratios 7 Days After Infection ([7]; single subcutaneous dose 16 mg/kg): 5/5
Survival Ratios 7 Days After Infection ([7]; single subcutaneous dose 32 mg/kg): 5/5
Survival Ratios 7 Days After Infection ([7]; single subcutaneous dose 64 mg/kg): 5/5
